According to US20220273759A1, “PHARMACEUTICAL ASSOCIATION FOR CONVERTING A NEOPLASTIC CELL INTO A NON-NEOPLASTIC CELL AND USES THEREOF” (HISTIDE AG, priority 2015, published 2022):
Where no end group is shown, it is not given here.

What was measured:
[1] = test system: neoplastic cells (osteosarcoma cells); assay: Immunofluorescence visualization of neoplastic cells cultured on a polymer scaffold covalently modified with a GFR-binding compound and a RGD peptide; assay type: cell-based; details: polymer scaffold covalently modified with a mixture of GFR-binding compound and RGD peptide; after 24 hours of culture
Protocol: (b) Immunofluorescence visualization of a neoplastic cell (osteosarcoma cells) after silencing integrins α3β1 by using shRNAs, after 24 hours of culture on a polymer scaffold covalently grafted with RGD peptides. […] The actin filaments were immunostained by using Alexa 488-phalloidin. The focal adhesions were represented by immunostaining with anti-vinculin. The nucleus was stained with DAPI and is represented by a circle in the center of the cell. Scale bar: 5 μm. (c) Immunofluorescence visualization of neoplastic cells cultured on a polymer scaffold covalently modified with a mixture comprising a GFR-binding compound as defined herein (SEQ ID NO: 2) and a RGD peptide, after 24 hours of culture. Scale bar: 500 μm. […] The actin filaments were immunostained by using Alexa 488-phalloidin. The focal adhesions were represented by immunostaining with anti-vinculin. The nucleus was stained with DAPI and is represented by a circle in the center of the cell.

[2] = Stability of non-covalent association (release of FITC-labelled GFR-binding compound from carrier); assay type: physicochemical; details: after 3, 7 or 10 days
Protocol: Non-covalent associations of the bioactive carriers were performed under atmospheric conditions (air) at room temperature (about 22° C.). The non-covalent association was carried out using a mixture of GFR-binding compound of SEQ ID NO: 9 (concentration of 1×10^−3 M) with the apatite ceramics or a mixture of GFR-binding compound of SEQ ID NO: 10 (concentration of 1×10^−3 M) with the type-I collagen sponge. The non-covalent pharmaceutical associations were characterized by covalently associating fluorescent GFR-binding compounds of SEQ ID NO: 9 and 10 (covalently bound to fluorescein isothiocyanate (FITC), FIG. 1).

Substance	morphology of neoplastic cells (immunofluorescence: actin, vinculin, DAPI) [1]	release of GFR-binding compounds from the carrier [2]
SEQ ID NO: 2: GFR-binding compound as defined herein, covalently grafted on a polymer scaffold in a mixture with a RGD peptide (YVPKPSSAPTKLNAISTLYF; also: covalently grafted on a polymer scaffold)	Spheroid-like structures of neoplastic cells become predominant	–
SEQ ID NO: 10: GFR-binding compound of the sequence listing, non-covalently associated with type-I collagen sponge; sequence not shown in this part (KVGKASSVPTKLSAISTLYL; Non-cyclic GFR-binding peptide)	–	no significant release
